Data on 3 molecules can be found in patent publication US9539316B2, “Blood stage malaria vaccine” (priority 2011, dated 2017).

The test system of one data set is P. vinckei. Format: in vivo, A/J mice. To be noted: for protection against heterologous challenge: 3 doses of 10^6 P. chabaudi pRBC (ring stages) i.v. 2 weeks apart, compound 2 μM, 40 minutes, 37° C., challenge 10^4 P. vinckei (FIG. 7B).
Data set [1] deals with P. chabaudi. Conditions: 500 μL blood of mice immunized with 10^7 centanamycin (2 μM or 200 nM) attenuated pRBC taken at day 42 post-innoculation, transferred to naïve reporter mice.
The subject of data set [2] is P. chabaudi. Format: in vivo, A/J mice. To be noted: for protection against homologous challenge: 3 doses of 10^6 pRBC (ring stages) i.v. 2 weeks apart, compound 2 μM, 40 minutes, 37° C., challenge 10^5 P. chabaudi (FIG. 7A).

`COc1cc2cc(C(=O)Nc3cc(O)c4ncc(C)cc4c3CCCl)[nH]c2c(OC)c1OC` [AS-VIII-104]: in the data set with P. vinckei, the “protection against heterologous challenge” value is “performed similarly to centanamycin”.

Take `COc1cc2cc(C(=O)Nc3cc(N)c4ccccc4c3CCCl)[nH]c2c(OC)c1OC` [centanamycin]: the “parasites detected by microscopy” value in the data set with P. chabaudi [1] was “no parasites detected”. Besides, the “parasitaemia by day 11 post-challenge” value in the data set on P. chabaudi [2] (3 doses of 10^4, 10^5 or 10^6 pRBC, each group, centanamycin 2 μM (FIG. 4)) is listed as “little or no parasitaemia”. In the data set with P. chabaudi [2], the “protection against homologous challenge” value was “lower”. For the same molecule, the “parasitaemia compared between dose groups, e.g. at day 9 post-challenge” value with P. chabaudi [2] (3 doses of 10^6 pRBC versus 10^4 and 10^5, centanamycin 2 μM (FIG. 4)) is reported as “lowest”. In addition, the “vaccination efficacy, 200 nM attenuation” value in the data set with P. chabaudi [2] (3 doses or a single dose of 10^4 P. chabaudi pRBC treated with 200 nM centanamycin (FIG. 3)) is on record as “effectively vaccinated”. Further, in the data set on P. chabaudi [2] (centanamycin attenuated P. chabaudi pRBC, 3 doses of vaccine), the “vaccine efficacy, 3 doses” value is given as “work effectively”. In addition, the clinical score data entry in the data set on P. chabaudi [2] (immunization with 10^6 centanamycin-treated parasites and challenge (FIG. 6)) is “protected not only from death and high parasitemia but also from symptoms”. For the same molecule, the “immunity to virulent challenge (parasitemia)” value in the data set with P. chabaudi [2] (pRBC treated in vitro with 2 μM centanamycin, 5 doses i.v. 1 week apart, 10^4 parasites each, challenge 10^5 homologous WT pRBC) was “induces immunity to virulent challenge”. Moreover, the “protection, single dose” value in the data set with P. chabaudi [2] (single dose of 10^4 pRBC, centanamycin 2 μM, challenge 10^5 pRBC 35 days after vaccination (FIG. 2)) was “induces protection in most animals”. In addition, the “parasitaemia at day 8 and 9 post-challenge versus 2 μM attenuated parasites” value in the data set with P. chabaudi [2] (single dose of 10^7 pRBC attenuated using 200 nM centanamycin (FIG. 5)) is “more significant parasitaemia”. In the data set on P. chabaudi [2] (single dose of 10^7 pRBC attenuated using 200 nM centanamycin, compared with 2 μM (FIG. 5)), the “recovery by day 13 post-innoculation” value is reported as “recovered to the same extent”.

On to `COc1cc2cc(C(=O)N3CC(CCl)c4c3cc(O)c3ccoc43)[nH]c2c(OC)c1OC` (stereo not shown) [tafuramycin A, seco-iso-cyclopropylfurano[2,3-e]indoline-TMI], for which the peak parasite density result in the data set with P. vinckei (1 mouse of the group, P. vinckei challenge) is “approximately 20%”. Further, in the data set with P. vinckei, the “protection against heterologous challenge” value is reported as “very significant protection”. Besides, the “recovery by day 12” value in the data set on P. vinckei (P. vinckei challenge, all animals) is “all the animals had fully recovered”. The “protection against homologous challenge” value with P. chabaudi [2] is recorded as “near complete protection”.
